Measured values from patent US20020098469A1, “EXTRACORPOREAL METHODS FOR ENHANCING ANTIGEN PRESENTATION AND IMMUNE RESPONSIVENESS” (morgan ,lewis, bockius llp, priority 1996, published 2002).

Experiments:
[1] = system: C1R human B lymphoblasts displaying B27 Class I complex; assay: Class I MHC level of C1R cells incubated in various containers, cytofluorimeter (FIG. 5); format: cell-based; conditions: photoactivated 8-MOP in the 2410 bag (no leachable plasticizers), about 24 hours at 37° C.
Experimental: In the foregoing experiment, C1R human B lymphoblasts, cells molecularly engineered so that they display a readily studied B27 Class I protein complex, were exposed to photoactivated 8-MOP in the presence of various plastic containers. The mean fluorescence intensity was measured in a cytofluorimeter, using monoclonal antibodies specific for the B27 Class I complex.

[2] = system: human B lymphoblasts lacking the TAP genes or with TAP blocked by transduced ICP47; assay: TAP dependence of the 8-MOP-induced Class I increase (FIG. 4); format: cell-based; conditions: B lymphoblasts that lacked the TAP genes or had them blocked by transduced ICP47 (both conditions)
Experimental: Next, it was determined that the 8-MOP-induced increase in surface Class I molecules is dependent on peptide transport across the endoplasmic reticulum through the transporter associated with […] (TAP) pores. […] The increased immunogenicity of 8MOP treated disease-effector cells was thus shown to involve the augmented catabolism of proteins, leading to the generation of small peptides that are then transported to Class I molecules in the endoplasmic reticulum and then on to the cell surface where they associate with the Class I molecules.

[3] = system: Class I molecules on transduced C1R B cells; assay: Binding of iodinated B27 allele-specific peptide, immunoprecipitation with antibody 4E; format: cell-based, human; conditions: transduced C1R B cells exposed to 8-MOP
Experimental: To determine if the Class I MHC molecules induced in Example 5 remained functional, i.e., could be loaded with a known B27 allele-specific peptide, iodinated peptide was added under varied conditions.

[4] = system: C1R B lymphoblastoid line transduced with the Class I B27 allele; assay: Class I expression on B27-transduced C1R B lymphoblastoid line, labeled W6/32 monoclonal antibody (FIG. 3); format: cell-based, human; conditions: for impact on Class I expression: other pharmacologic agents compared with 8-MOP
Experimental: In order to evaluate the enhanced immunogenicity of 8-MOP treated CTCL cells, a series of human lymphoblast lines was derived. The C1R B lymphoblastoid line, which in its native state expresses no HLA-A or HLA-B surface Class I and only a minute amount of HLA-C molecules was transduced with the Class I B27 allele. This modified cell population, with nearly all of its surface Class I molecules being B27, was exposed to 8MOP and incubated overnight.

[5] = system: Class I protein on the cell surface; assay: Class I expression after 8-MOP/UVA, fluorescent antibody, mean fluorescence channel (FIG. 2); format: cell-based
Text: Mean fluorescence channel measurements permit the quantification of the amount of Class I protein on the cell surface, as identified with a fluorescent antibody against the Class I protein.

## COc1c2occc2cc2ccc(=O)oc12 [8-MOP, 8-methoxypsoralen]
[1]
  Class I MHC level versus untreated controls: more than doubled
[2]
  8-MOP induced increase in Class I molecules: prevented
[3]
  allele-specific peptide bound versus untreated cell line control: approximately 3 fold
  increase in functional Class I molecules per cell: > 10,000 functional Class I molecules per cell
[4]; UVA administered before the addition of 8-MOP, drug not photoactivated
  Class I expression: only a minor increase
[4]; optimal levels of 8-MOP
  time to peak levels of Class I expression after exposure: 20 h
[4]; photoactivated 8-MOP, optimal levels, overnight incubation
  increase of Class I expression over background: approximately 3 fold
[5]; 1 joule per cm^2 of UVA and 200 ng/ml of 8-MOP, incubation about 18 hours, versus control cells
  Class I molecule expression: about doubles

## γ-interferon: other pharmacologic agent compared with 8-MOP
[4]
  impact on Class I expression: either no or a more limited impact

## TNF-α
[4]
  impact on Class I expression: either no or a more limited impact

## CC[C@H]1CN2CCc3cc(OC)c(OC)cc3[C@@H]2C[C@@H]1C[C@H]1NCCc2cc(OC)c(OC)cc21 [emetine]
[5]; emetine added to 8-MOP/UVA treated cells
  effect on the 8-MOP/UVA-induced increase in Class I expression: prevented

## CO[C@@]12[C@H](COC(N)=O)C3=C(C(=O)C(C)=C(N)C3=O)N1C[C@@H]1N[C@@H]12 [mytomycin C]
[4]
  impact on Class I expression: either no or a more limited impact
